US9481673B2, “6-alkynyl-pyridine derivatives” (Boehringer Ingelheim International GmbH, priority 2014, dated 2016)
In brackets after ≈: the same amount, converted by molar mass.

Columns and labels:
cIAP1 BIR3 = cIAP1 BIR3 (Homo sapiens (Human), UniProt Q13490); assay: cIAP1 BIR3 binding assay (DELFIA), BIR3-SMAC peptide interaction; settings: (S)-isomers; BIR3 domain 10 nM, SMAC peptide 10 nM; read-out: cIAP1 BIR-3 IC50
P450 2C19 = P450 2C19 (Homo sapiens (Human), UniProt P33261); assay: Cytochrome P450 isoenzyme inhibition assay, hydroxylation of Mephenytoin; type: in vitro ADME
P450 2C8 = P450 2C8 (Homo sapiens (Human), UniProt P10632); assay: Cytochrome P450 isoenzyme inhibition assay, deethylation of Amodiaquine; type: in vitro ADME
P450 2C9 = P450 2C9 (Homo sapiens (Human), UniProt P11712); assay: Cytochrome P450 isoenzyme inhibition assay, hydroxylation of Diclofenac; type: in vitro ADME
P450 2D6 = P450 2D6 (Homo sapiens (Human), UniProt P10635); assay: Cytochrome P450 isoenzyme inhibition assay, demethylation of Dextromethorphan; type: in vitro ADME
P450 3A4 = P450 3A4 (Homo sapiens (Human), UniProt P08684); assay: Cytochrome P450 isoenzyme inhibition assay, hydroxylation of Midazolam; type: in vitro ADME
[1] = Solubility measurement (DMSO solution precipitation method); type: physicochemical; settings: aqueous buffer, kinetic from dmso stock; for solubility kinetic at 24 h: (S)-isomers, McIlvaine buffer pH 6.8, 24 h shaking at ambient temperature, read-out: Sol pH 6.8; for solubility at 24 h: McIlvaine buffer, measured examples from WO 2013/127729 (Table 1), pH 6.8
[2] = (S)-isomers, human liver microsomes, 37° C.
[3] = measured examples from WO 2013/127729 (Table 1)

Row | IC50 (cIAP1 BIR3) | IC50 (P450 2C19; [2]) | IC50 (P450 2C8; [2]) | IC50 (P450 2C9; [2]) | IC50 (P450 2D6; [2]) | IC50 (P450 3A4; [2]) | solubility kinetic at 24 h [1] | IC50 (P450 2C19; [3]) | IC50 (P450 2C8; [3]) | IC50 (P450 2C9; [3]) | IC50 (P450 2D6; [3]) | IC50 (P450 3A4; [3]) | solubility at 24 h [1] | Compound
1 | 1 nM | 1.9 µM | 900 nM | > 50 µM | > 50 µM | > 50 µM | 8 µg/mL (≈ 14.1 µM) | – | – | – | – | – | – | CN[C@@H](C)C(=O)Nc1ccc(-c2c(-c3ccnc(C)c3)nc3cc(C)ccn23)c(C#Cc2ccc3c(C)nccc3c2)n1 [(S)-2, (2S)-N-{5-[7-methyl-2-(2-methylpyridin-4-yl)imidazo[1,2-a]-pyridin-3-yl]-6-[2-(1-methylisoquinolin-6-yl)ethynyl]pyridin-2-yl}-2-(methylamino)-propanamide]
2 | 1 nM | > 50 µM | 25000 nM | > 50 µM | – | > 50 µM | 1 µg/mL (≈ 1.77 µM) | – | – | – | – | – | – | CN[C@@H](C)C(=O)Nc1ccc(-c2c(-c3ccc(C)nc3)nc3cc(C)ccn23)c(C#Cc2ccc3c(C)nccc3c2)n1 [(S)-6, (2S)-N-{5-[7-methyl-2-(6-methylpyridin-3-yl)imidazo[1,2-a]-pyridin-3-yl]-6-[2-(1-methylisoquinolin-6-yl)ethynyl]pyridin-2-yl}-2-(methylamino)-propanamide]
3 | 1 nM | > 50 µM | > 50000 nM | > 50 µM | – | > 50 µM | < 1 µg/mL | – | – | – | – | – | – | CN[C@@H](C)C(=O)Nc1ccc(-c2c(-c3cnc(C)nc3)nc3cc(C)ccn23)c(C#Cc2ccc3c(C)nccc3c2)n1 [(S)-7, (2S)-N-{5-[7-methyl-2-(2-methylpyrimidin-5-yl)imidazo[1,2-a]-pyridin-3-yl]-6-[2-(1-methylisoquinolin-6-yl)ethynyl]pyridin-2-yl}-2-(methylamino)-propanamide]
4 | 1 nM | 38 µM | 1600 nM | > 50 µM | – | > 50 µM | < 1 µg/mL | – | – | – | – | – | – | CN[C@@H](C)C(=O)Nc1ccc(-c2c(-c3ccnc(OC)c3)nc3cc(C)ccn23)c(C#Cc2ccc3c(C)nccc3c2)n1 [(S)-8, (2S)-N-{5-[2-(2-methoxypyridin-4-yl)-7-methylimidazo[1,2-a]pyridin-3-yl]-6-[2-(1-methylisoquinolin-6-yl)ethynyl]pyridin-2-yl}-2-(methyl-amino)propanamide]
5 | 1 nM | > 50 µM | 15000 nM | > 50 µM | – | > 50 µM | 2 µg/mL (≈ 3.44 µM) | – | – | – | – | – | – | CN[C@@H](C)C(=O)Nc1ccc(-c2c(-c3ccc(OC)nc3)nc3cc(C)ccn23)c(C#Cc2ccc3c(C)nccc3c2)n1 [(S)-9, (2S)-N-{5-[2-(6-methoxypyridin-3-yl)-7-methylimidazo[1,2-a]pyridin-3-yl]-6-[2-(1-methylisoquinolin-6-yl)ethynyl]pyridin-2-yl}-2-(methyl-amino)propanamide]
6 | 2 nM | > 50 µM | > 50000 nM | > 50 µM | – | > 50 µM | < 1 µg/mL | – | – | – | – | – | – | CN[C@@H](C)C(=O)Nc1ccc(-c2c(-c3cnc(C)nc3)nc3cc(C)ccn23)c(C#Cc2ccc3c(ccc(=O)n3C)c2)n1 [(S)-12, (2S)-N-{5-[7-methyl-2-(2-methylpyrimidin-5-yl)imidazo[1,2-a]-pyridin-3-yl]-6-[2-(1-methyl-2-oxo-1,2-dihydroquinolin-6-yl)-ethynyl]pyridin-2-yl}-2-(methylamino)-propanamide]
7 | 1 nM | > 50 µM | > 50000 nM | > 50 µM | – | > 50 µM | < 1 µg/mL | – | – | – | – | – | – | CN[C@@H](C)C(=O)Nc1ccc(-c2c(-c3ccc(OC)nc3)nc3cc(C)ccn23)c(C#Cc2ccc3c(ccc(=O)n3C)c2)n1 [(S)-14, (2S)-N-{5-[2-(6-methoxypyridin-3-yl)-7-methylimidazo[1,2-a]pyridin-3-yl]-6-[2-(1-methyl-2-oxo-1,2-dihydroquinolin-6-yl)-ethynyl]pyridin-2-yl}-2-(methylamino)-propanamide]
8 | 2 nM | 32 µM | 2200 nM | 19 µM | – | > 50 µM | 20 µg/mL (≈ 33.2 µM) | – | – | – | – | – | – | CN[C@@H](C)C(=O)Nc1ccc(-c2c(-c3cccnc3OC)nc3cc(Cl)ccn23)c(C#Cc2ccc3c(C)nccc3c2)n1 [(S)-15, (2S)-N-{5-[7-chloro-2-(2-methoxypyridin-3-yl)imidazo[1,2-a]-pyridin-3-yl]-6-[2-(1-methylisoquinolin-6-yl)ethynyl]pyridin-2-yl}-2-(methylamino)-propanamide]
9 | – | – | – | – | – | – | – | 4.3 µM | 500 nM | 0.4 µM | 5.2 µM | 2.1 µM | – | CNC(C)C(=O)Nc1ccc(-c2c(-c3ccncc3)nc3cc(C)ccn23)c(C#Cc2ccc3nc(C)ccc3c2)n1 (stereo not shown) [Ex 64, reference compound]
10 | – | – | – | – | – | – | – | 2.8 µM | 1200 nM | 0.9 µM | 3.4 µM | 4 µM | 8 µg/mL (≈ 14.1 µM) | CNC(C)C(=O)Nc1ccc(-c2c(-c3ccncc3)nc3cc(C)ccn23)c(C#Cc2ccc3c(ccc(=O)n3C)c2)n1 (stereo not shown) [Ex 81, reference compound]
11 | – | – | – | – | – | – | – | 4.8 µM | 300 nM | 0.4 µM | 2.2 µM | 2.3 µM | – | CNC(C)C(=O)Nc1ccc(-c2c(-c3ccncc3)nc3cc(C)ccn23)c(C#Cc2ccc(-c3ccon3)cc2)n1 (stereo not shown) [Ex 82, reference compound]
12 | – | – | – | – | – | – | – | 2.9 µM | 4900 nM | 0.7 µM | 3.3 µM | > 50 µM | – | CNC(C)C(=O)Nc1ccc(-c2c(-c3ccncc3)nc3cc(C)ccn23)c(C#Cc2ccc3c(c2)OCC(=O)N3C)n1 (stereo not shown) [Ex 94, reference compound]
13 | – | – | – | – | – | – | – | 16 µM | 1700 nM | 4.8 µM | 2.7 µM | 3 µM | 60 µg/mL (≈ 123 µM) | CNC(C)C(=O)Nc1ccc(-c2c(-c3ccncc3)nc3cc(C)ccn23)c(C#Cc2ccccc2)n1 (stereo not shown) [Ex 185, reference compound]
